The text below walks through data of US20110065760A1, “COMPOUNDS FOR THE INHIBITION OF ROTAMASES AND USE THEREOF” (Jerini AG, priority 2002, published 2011).

Like-named read-outs stand apart in the source and are kept apart here. A value given as a limit tells only on which side of the number the result lay.

Data set [1] is described as follows: WST-1 cytotoxicity assay, Caco-2. It is filed as cell-based. Particulars: human, Caco-2 cells (colon adenocarcinoma); WST-1, 48 h incubation; read-out: EC50 class, cytotoxic effect, CL-4 (Caco-2). As to the method:
(§1) For this cytotoxic evaluation of the compounds the commercial available WST-1 assay (Roche) was used according to the manufacturer's instructions. The assay is based on the cleavage of the tetrazolium salt WST-1 by mitochondrial dehydrogenases found in viable cells. In general compounds were added to cells cultured in 96-well plates at 37° C. After 48 h of incubation 10 μl of WST-1 solution was added. The formazan dye was analyzed with an ELISA plate reader at (450 vs. 620) nm. CL-1: human acute myeloid leukemia, HL-60 CL-2: human cervix carcinoma, HeLa CL-3: human prostate carcinoma, PC-3 CL-4: human colon adenocarcinoma, Caco-2 CL-5: human breast adenocarcinoma, MCF-7
On the technique in general: Tetrazolium assays rely on reduction of a dye to a coloured formazan, in cell work by metabolically active cells.

Data set [2] addresses EcParvulin (Escherichia coli, UniProt P0A9L5). Kind of data set: protease-coupled PPIase assay, EcParvulin. The class given is biochemical.
Data set [3] concerns Hela cells. The data set is described as follows: DAPI staining. Particulars: FIG. 3. The class given is cell-based, human. As to the method:
Hela cells grown on poly-L-Lys-coated coverslips were fixed with 2% paraformaldehyde/MeOH.
Cellular DNA was stained with DAPI staining buffer (100 mM Tris (pH 7.4), 150 mM NaCl, 1 mM CaCl2, 0.5 mM MgCl2, 0.1% nonidet P-40, 1 μg/ml DAPI (Molecular Probes)). All the steps were performed at room temperature, and cells were washed two times with PBS after each step. Finally, cells were mounted in 80% glycerol/PBS.

Data set [4] in a line: WST-1 cytotoxicity assay, HL-60. It is filed as cell-based. The note with it: human, HL-60 cells (acute myeloid leukemia); WST-1, 48 h incubation; read-out: EC50 class, cytotoxic effect, CL-1 (HL-60). Put shortly: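 Human tumour cell lines in culture were exposed to compounds at 37° C for 48 h, then given WST-1. Viability was read as formazan absorbance at (450 vs. 620) nm.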

The target in data set [5] is LpCyp18 (Legionella pneumophila, UniProt Q5ZRZ4). Kind of data set: biochemical. The note with it: IC50 class, Target T-4 (LpCyp18).
Chain of LpCyp18 (Q5ZRZ4 1-164): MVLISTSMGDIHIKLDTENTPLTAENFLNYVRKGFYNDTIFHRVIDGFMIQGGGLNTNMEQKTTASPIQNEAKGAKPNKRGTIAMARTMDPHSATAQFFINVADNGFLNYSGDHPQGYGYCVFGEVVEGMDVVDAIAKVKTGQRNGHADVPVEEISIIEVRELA
Data set [6] concerns the target hFKBP12 (Homo sapiens, UniProt P62942). Kind of data set: protease-coupled PPIase assay, hFKBP12. It is filed as biochemical. The note with it: 20 nM hFKBP12, substrate Suc-Ala-Phe-Pro-Phe-pNA, chymotrypsin, pH 7.8, 6° C.; read-out: IC50 class, Target T-2 (hFKBP12).
Data set [7] relates to cyclin D1 in MCF-7 and HeLa cells. Kind of data set: Cyclin D1 down regulation (western blot marker analysis). It is filed as cell-based, human. As to the method: MCF-7 (5×10^5 cells/well) and HeLa cells (1.5×10^5 cells/well) were seeded in 6-well plates and incubated at 37° C. over night. Compounds or DMSO (final solvent concentration 0.1%) were added to the cells and incubated for different times as indicated. Subsequently, cells were lysed in RIPA buffer for 30 min on ice and centrifuged for 20 min at 4° C. After addition of electrophoresis sample buffer (4×) and 50 mM DTT to the supernatant, samples were boiled for 4 min at 95° C. Samples (equivalent to 2×10^5 cells/well) were run on a 15% SDS gel followed by blotting onto PVDF membrane.
The membrane was blocked for 1 h in 10 mM Tris (pH 7.5), 100 mM NaCl, 0.1% Tween-20 and 5% non-fat dry milk (blocking buffer) and incubated for 1 h with mouse anti-hCyclin D1 monoclonal antibody (clone DCS-6, BD Biosciences) diluted to 1 μg/ml in blocking buffer. Blots were washed 3×10 min with 10 mM Tris (pH 7.5), 100 mM NaCl, 0.1% Tween-20 (washing buffer) and incubated with 0.7 μg/ml peroxidase-conjugated sheep anti-mouse IgG (Sigma) in blocking buffer for 1 h. After washing 3×10 min with washing buffer, the plot was developed with the ECL+ detection kit (Amersham Biosciences).
(In western blotting, separated proteins are transferred to a membrane and probed.)

In data set [8] the target is hPin1 (Homo sapiens, UniProt Q13526). Kind of data set: protease-coupled PPIase assay, hPin1. The class given is biochemical. The note with it: 6 nM hPin1, substrate Ac-Ala-Ala-Ser(PO3H2)-Pro-Arg-pNA, trypsin, pH 7.8, 6° C.; read-out: IC50 class, Target T-1 (hPin1).
Chain of hPin1 (Q13526 whole entry): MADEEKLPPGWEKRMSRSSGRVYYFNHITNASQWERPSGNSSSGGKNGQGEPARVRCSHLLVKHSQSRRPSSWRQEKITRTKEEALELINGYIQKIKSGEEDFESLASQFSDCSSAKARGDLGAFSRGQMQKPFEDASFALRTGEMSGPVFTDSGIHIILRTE
Data set [9] has as its target hCyp18 (Homo sapiens, UniProt P62937). Kind of data set: protease-coupled PPIase assay, hCyp18. The class given is biochemical. Particulars: 10 nM hCyp18, substrate Suc-Ala-Phe-Pro-Phe-pNA, chymotrypsin, pH 7.8, 6° C.; read-out: IC50 class, Target T-3 (hCyp18).
Data set [10] deals with T1, Trypsin (UniProt P00760).
T1 sequence (P00760 1-246): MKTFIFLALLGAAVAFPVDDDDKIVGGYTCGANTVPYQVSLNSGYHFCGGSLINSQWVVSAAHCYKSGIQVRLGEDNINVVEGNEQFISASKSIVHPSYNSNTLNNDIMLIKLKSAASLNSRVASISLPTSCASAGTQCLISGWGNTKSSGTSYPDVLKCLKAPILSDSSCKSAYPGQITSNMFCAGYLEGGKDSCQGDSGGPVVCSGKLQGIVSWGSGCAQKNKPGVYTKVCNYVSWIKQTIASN
Kind of data set: trypsin assay. Particulars: 0.1 μg/ml trypsin, 120 μM Ac-Ala-Ala-Ser(PO3H2)-Pro-Arg-pNA, pH 7.8, 30° C., 30 min incubation; read-out: IC50 class, Target T-7 (Trypsin). The class given is biochemical. As to the method: (§2) In order to investigate the impact of some of the inventive compounds on the activity of key proteases the following assay was performed: Protease activities were measured spectrophotometrically at 30° C. according to Schomburg and Salzmann (Schomburg, B.; Salzmann M. GBF: Enzyme Handbook. Springer Verlag, Berlin Heidelberg, 1991) and Bergmeyer et al. (Bergmeyer, H. U.; Bergmeyer, J.; Graβl, M. Methods of Enzymatic Analysis, Vol. V Enzymes 3: Peptides, Proteinases and Their Inhibitors. pp 55-371, VCH, Weinheim, 1988). The release of 4-nitroaniline was determined at 390 nm with a Spectramax Plus UV/Vis spectrophotometer (Molecular Devices). The cathepsin B assay was performed in a reaction mixture containing 0.2 μg/ml cathepsin B, 2 mM Z-Arg-Arg-pNA in 88 mM KH2PO4, 12 mM Na2HPO4, 1.33 mM EDTA, 0.03% Brij 35 (pH 5.8). The trypsin assay was carried out in a reaction mixture containing 0.1 μg/ml trypsin and 120 μM Ac-Ala-Ala-Ser(PO3H2)-Pro-Arg-pNA in 35 mM HEPES (pH 7.8) and the papain assay in a mixture consisting of 16 μg/ml papain and 2 mM Bz-DL-Arg-pNA in 10 mM Na2HPO4, 2 mM L-Cys, 5 mM EDTA (pH 6.5). In general, reactions were started by addition of peptide substrate after a 30 min incubation of 1-100 μM effector with given concentrations of enzyme.

Data set [11] is described as follows: WST-1 cytotoxicity assay, PC-3. Particulars: human, PC-3 cells (prostate carcinoma); WST-1, 48 h incubation; read-out: EC50 class, cytotoxic effect, CL-3 (PC-3). It is filed as cell-based. As to the method: as §1
Data set [12] concerns tumor cell lines (HL-60, HeLa, PC-3, Caco-2, MCF-7). The data set is described as follows: WST-1 cytotoxicity assay, tumor cell lines (panel statement). The class given is cell-based, human. Particulars: WST-1, 48 h; table 4. As to the method:
as §1

A short description of data set [13]: WST-1 cytotoxicity assay, HeLa. It is filed as cell-based. The note with it: human, HeLa cells (cervix carcinoma); WST-1, 48 h incubation; read-out: EC50 class, cytotoxic effect, CL-2 (HeLa). Here is the method: as §1
Data set [14] is described as follows: WST-1 cytotoxicity assay, MCF-7. It is filed as cell-based. The note with it: human, MCF-7 cells (breast adenocarcinoma); WST-1, 48 h incubation; read-out: EC50 class, cytotoxic effect, CL-5 (MCF-7). As to the method:
as §1

The test system of data set [15] is HL-60 cells. Kind of data set: FACS measurements and TUNEL assay (Apo-Direct kit). The class given is cell-based, human. The note with it: FIG. 2. An excerpt:
Enari M. Sakahira H. Yokoyama H. Okawa K. Iwamatsu A. Nagata S. A caspase-activated DNase that degrades DNA during apoptosis, and its inhibitor ICAD [erratum appears in Nature 1998 May 28; 393(6683):396.]. Nature. 391:43-50, 1998 • Darzynkiewicz Z. Juan G. Li X. Gorczyca W. Murakami T. Traganos F. Cytometry in cell necrobiology: analysis of apoptosis and accidental cell death (necrosis). Cytometry. 27:1-20, 1997
Apoptotic HL-60 cells were detected by FACS analysis of FITC-dUTP-labelled DNA breaks using the Apo-Direct kit (BD-Pharmingen) according to the manufacturer's protocol.

The target in data set [16] is T2, Papain (Carica papaya, UniProt P00784).
T2 sequence (P00784 134-345): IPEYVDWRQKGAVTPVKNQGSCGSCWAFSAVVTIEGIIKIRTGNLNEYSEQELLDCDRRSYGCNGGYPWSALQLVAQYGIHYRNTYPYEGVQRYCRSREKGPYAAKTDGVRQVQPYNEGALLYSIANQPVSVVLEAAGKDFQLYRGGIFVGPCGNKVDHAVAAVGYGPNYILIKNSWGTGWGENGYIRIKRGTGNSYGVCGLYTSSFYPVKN
Kind of data set: papain assay. It is filed as biochemical. The note with it: 16 μg/ml papain, 2 mM Bz-DL-Arg-pNA, pH 6.5, 30° C., 30 min incubation; read-out: IC50 class, Target T-6 (Papain). As to the method: as §2

In data set [17] the target is cathepsin B (Homo sapiens, UniProt P07858). Kind of data set: cathepsin B assay. It is filed as biochemical. The note with it: 0.2 μg/ml cathepsin B, 2 mM Z-Arg-Arg-pNA, pH 5.8, 30° C., 30 min incubation; read-out: IC50 class, Target T-8 (Cathepsin). Here is the method:
as §2

Chain of hCyp18 (P62937 whole entry): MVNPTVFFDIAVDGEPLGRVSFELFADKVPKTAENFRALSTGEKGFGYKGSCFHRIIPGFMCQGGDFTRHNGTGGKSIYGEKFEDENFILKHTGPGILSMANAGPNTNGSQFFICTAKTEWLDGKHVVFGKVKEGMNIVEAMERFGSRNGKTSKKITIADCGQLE
Chain of hFKBP12 (P62942 whole entry): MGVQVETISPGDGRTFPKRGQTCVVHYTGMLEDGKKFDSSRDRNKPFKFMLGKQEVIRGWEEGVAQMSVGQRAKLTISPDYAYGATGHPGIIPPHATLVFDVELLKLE
Chain of EcParvulin (P0A9L5 whole entry): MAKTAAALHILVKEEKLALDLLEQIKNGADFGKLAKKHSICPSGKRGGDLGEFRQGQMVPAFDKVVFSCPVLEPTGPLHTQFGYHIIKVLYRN

Turning to `CC(C)(C)CC(C)(C)NC(=O)Nc1cc(Cl)cc(Cl)c1O` [Compound 30], the EC50 at 48 h in [1] and in data set [4] was under 10 µM in each case. Further, the IC50 (commonly the concentration that gives 50% inhibition) is over 100 µM in data set [2] (20 nM EcParvulin, substrate Suc-Ala-Phe-Pro-Phe-pNA, chymotrypsin, pH 7.8, 6° C., read-out: IC50 class, Target T-5 (EcParv)); over 100 µM in [5]; over 100 µM in data set [6]; 1 to 10 µM in [8]; over 100 µM in [9]. In [3], the “induction of apoptosis (DAPI staining, fluorescence microscopy)” value was “induce apoptosis”. Also, the “cyclin D1 down regulation” value in data set [7] is listed as “particular relevance”.

In the case of `Cc1c(Cl)cc(NC(=S)Nc2ccc(C(F)(F)F)cc2)c(O)c1Cl` [Compound 264], the IC50 in data set [10] is over 100 µM; in data set [16], over 100 µM; in data set [17], over 100 µM; in data set [8], under 1 µM. The EC50 at 48 h in [1], in data set [11], in [13], in [14] and in data set [4] was under 10 µM each time. Also, the “induction of apoptosis (DAPI staining, fluorescence microscopy)” value in data set [3] is recorded as “induce apoptosis”. In addition, the “cytotoxic effect on the tumor cell lines tested” value (from here on “cytotoxic effect”) in [12] is “particular relevance”. Moreover, the “induction of apoptosis (FACS analysis of FITC-dUTP-labelled DNA breaks)” value in [15] is recorded as “induce apoptosis”. In addition, the “cyclin D1 down regulation” value in data set [7] is reported as “particular relevance”.

For the compound `Oc1c(NCc2ccccc2Sc2ccc(Cl)cc2)ccc(F)c1F` [Compound 399], the IC50 was 10 to 50 µM in [2]; over 100 µM in data set [16]; 50 to 100 µM in data set [5]; 10 to 50 µM in data set [17]; over 100 µM in [6]; under 1 µM in data set [8]. The IC50 in [9] is 50 to 100 µM. Besides, the EC50 at 48 h in data set [11], in [13], in data set [14] and in data set [4] was under 10 µM throughout. In data set [3], the “induction of apoptosis (DAPI staining, fluorescence microscopy)” value is reported as “induce apoptosis”. Besides, the “cytotoxic effect” value in data set [12] is on record as “particular relevance”. Further, the “cyclin D1 down regulation” value in data set [7] is given as “particular relevance”.

Take `CC(CC(=O)Nc1cc(Cl)c(O)c(Cl)c1)CC(C)(C)C` (stereo not shown) [Compound 1273]: the IC50 was over 100 µM in data set [10]; 1 to 10 µM in [2]; over 100 µM in data set [16]; over 100 µM in data set [5]; over 100 µM in data set [17]; over 100 µM in data set [6]. Besides, the IC50 was under 1 µM in data set [8] and over 100 µM in [9]. The EC50 (in general, the concentration at which the effect is half-maximal) at 48 h in data set [1] lay in the range of 10 to 50 µM; in data set [11], 10 to 50 µM; in [13] it was 50 to 100 µM; in data set [4], 10 to 50 µM. Also, the “cytotoxic effect” value in data set [12] is on record as “particular relevance”.
